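48-hour exposure; five concentrations; linearly interpolated endpoints. The concentration for 50% growth inhibition is given as GI50. At the TGI there is no net growth.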
Legend:
Test in all cases: growth of human tumour cells (NCI), 48 h
K-562 leukemia = test system: K-562 leukemia
NCI/ADR-RES ovarian = test system: NCI/ADR-RES ovarian
SF-295 CNS = test system: SF-295 CNS
KM12 colon = test system: KM12 colon
MOLT-4 leukemia = test system: MOLT-4 leukemia
HCT-116 colon = test system: HCT-116 colon
RXF 393 renal = test system: RXF 393 renal
BT-549 breast = test system: BT-549 breast
SN12C renal = test system: SN12C renal
A498 renal = test system: A498 renal
CCRF-CEM leukemia = test system: CCRF-CEM leukemia
HS 578T breast = test system: HS 578T breast
M14 melanoma = test system: M14 melanoma
SF-268 CNS = test system: SF-268 CNS
DU-145 prostate = test system: DU-145 prostate
MDA-MB-231 breast = test system: MDA-MB-231 breast
EKVX NSCLC = test system: EKVX NSCLC
SK-MEL-2 melanoma = test system: SK-MEL-2 melanoma
OVCAR-4 ovarian = test system: OVCAR-4 ovarian
SNB-19 CNS = test system: SNB-19 CNS
SK-MEL-28 melanoma = test system: SK-MEL-28 melanoma
MCF7 breast = test system: MCF7 breast
HCT-15 colon = test system: HCT-15 colon
786-0 renal = test system: 786-0 renal
SF-539 CNS = test system: SF-539 CNS
UACC-257 melanoma = test system: UACC-257 melanoma
NCI-H460 lung = test system: NCI-H460 lung
PC-3 prostate = test system: PC-3 prostate
OVCAR-3 ovarian = test system: OVCAR-3 ovarian
HOP-92 NSCLC = test system: HOP-92 NSCLC
ACHN renal = test system: ACHN renal
SK-OV-3 ovarian = test system: SK-OV-3 ovarian
MDA-MB-435 = test system: MDA-MB-435
NCI-H226 lung = test system: NCI-H226 lung
OVCAR-8 ovarian = test system: OVCAR-8 ovarian
TK-10 renal = test system: TK-10 renal
A549 NSCLC = test system: A549 NSCLC
SR leukemia = test system: SR leukemia
NCI-H522 lung = test system: NCI-H522 lung
LOX IMVI melanoma = test system: LOX IMVI melanoma
HOP-62 NSCLC = test system: HOP-62 NSCLC
OVCAR-5 ovarian = test system: OVCAR-5 ovarian
HCC-2998 colon = test system: HCC-2998 colon
SNB-75 CNS = test system: SNB-75 CNS
IGROV1 ovarian = test system: IGROV1 ovarian
SW-620 colon = test system: SW-620 colon
UO-31 renal = test system: UO-31 renal
CAKI-1 renal = test system: CAKI-1 renal
HL-60(TB) leukemia = test system: HL-60(TB) leukemia
COLO 205 colon = test system: COLO 205 colon
RPMI-8226 leukemia = test system: RPMI-8226 leukemia
HT29 colon = test system: HT29 colon
T-47D breast = test system: T-47D breast
U251 CNS = test system: U251 CNS
NCI-H23 lung = test system: NCI-H23 lung

For Cc1cc(=O)[nH]c(N/N=C/c2cc(Br)ccc2O)n1, the GI50 (K-562 leukemia) was 0.605 µM, the TGI (K-562 leukemia) was > 100 µM and the GI50 (NCI/ADR-RES ovarian) was 0.35 µM. For the same compound, the TGI (NCI/ADR-RES ovarian) was > 100 µM, the GI50 (SF-295 CNS) was 0.193 µM and the TGI (SF-295 CNS) was 0.568 µM. For the same compound, the GI50 (KM12 colon) was 0.869 µM, the TGI (KM12 colon) was > 100 µM and the GI50 (MOLT-4 leukemia) was 0.432 µM. For the same compound, the TGI (MOLT-4 leukemia) was 15.5 µM, the GI50 (HCT-116 colon) was 0.353 µM and the TGI (HCT-116 colon) was > 100 µM. The GI50 (RXF 393 renal) was 3.35 µM, the TGI (RXF 393 renal) was > 100 µM and the GI50 (BT-549 breast) was 11 µM. The TGI (BT-549 breast) was > 100 µM, the GI50 (SN12C renal) was 0.809 µM and the TGI (SN12C renal) was > 100 µM. The GI50 (A498 renal) was 4.06 µM, the TGI (A498 renal) was 25.4 µM and the GI50 (CCRF-CEM leukemia) was 0.441 µM. The TGI (CCRF-CEM leukemia) was > 100 µM, the GI50 (HS 578T breast) was 7.1 µM and the TGI (HS 578T breast) was > 100 µM. For the same compound, the GI50 (M14 melanoma) was 0.53 µM, the TGI (M14 melanoma) was > 100 µM and the GI50 (SF-268 CNS) was 0.728 µM. For the same compound, the TGI (SF-268 CNS) was > 100 µM, the GI50 (DU-145 prostate) was 1.78 µM and the TGI (DU-145 prostate) was > 100 µM. For the same compound, the GI50 (MDA-MB-231 breast) was 0.976 µM, the TGI (MDA-MB-231 breast) was > 100 µM and the GI50 (EKVX NSCLC) was 1.82 µM. The TGI (EKVX NSCLC) was 7.67 µM, the GI50 (SK-MEL-2 melanoma) was 49.3 µM and the TGI (SK-MEL-2 melanoma) was > 100 µM. It also gave a GI50 (OVCAR-4 ovarian) of 0.383 µM, a TGI (OVCAR-4 ovarian) of 33.8 µM and a GI50 (SNB-19 CNS) of 3.56 µM. For the same compound, the TGI (SNB-19 CNS) was > 100 µM, the GI50 (SK-MEL-28 melanoma) was 4.55 µM and the TGI (SK-MEL-28 melanoma) was > 100 µM. For the same compound, the GI50 (MCF7 breast) was 0.318 µM, the TGI (MCF7 breast) was 16.6 µM and the GI50 (HCT-15 colon) was 0.606 µM. The TGI (HCT-15 colon) was > 100 µM, the GI50 (786-0 renal) was 2.35 µM and the TGI (786-0 renal) was > 100 µM. For the same compound, the GI50 (SF-539 CNS) was 2.78 µM, the TGI (SF-539 CNS) was 39 µM and the GI50 (UACC-257 melanoma) was 0.383 µM. It also gave a TGI (UACC-257 melanoma) of 9.12 µM, a GI50 (NCI-H460 lung) of 0.488 µM and a TGI (NCI-H460 lung) of 20.5 µM. For the same compound, the GI50 (PC-3 prostate) was 0.698 µM, the TGI (PC-3 prostate) was > 100 µM and the GI50 (OVCAR-3 ovarian) was 0.34 µM. The TGI (OVCAR-3 ovarian) was 38.6 µM, the GI50 (HOP-92 NSCLC) was 19.3 µM and the TGI (HOP-92 NSCLC) was > 100 µM. For the same compound, the GI50 (ACHN renal) was 0.927 µM, the TGI (ACHN renal) was > 100 µM and the GI50 (SK-OV-3 ovarian) was 1.34 µM. For the same compound, the TGI (SK-OV-3 ovarian) was > 100 µM, the GI50 (MDA-MB-435) was 1.77 µM and the TGI (MDA-MB-435) was 81.5 µM. The GI50 (NCI-H226 lung) was 2.1 µM, the TGI (NCI-H226 lung) was > 100 µM and the GI50 (OVCAR-8 ovarian) was 0.369 µM. For the same compound, the TGI (OVCAR-8 ovarian) was 35.6 µM, the GI50 (TK-10 renal) was 21.5 µM and the TGI (TK-10 renal) was > 100 µM. For the same compound, the GI50 (A549 NSCLC) was 1.84 µM, the TGI (A549 NSCLC) was > 100 µM and the GI50 (SR leukemia) was 0.896 µM. For the same compound, the TGI (SR leukemia) was > 100 µM, the GI50 (NCI-H522 lung) was 3.37 µM and the TGI (NCI-H522 lung) was 22 µM. The GI50 (LOX IMVI melanoma) was 0.634 µM, the TGI (LOX IMVI melanoma) was > 100 µM and the GI50 (HOP-62 NSCLC) was 1.41 µM. The TGI (HOP-62 NSCLC) was > 100 µM, the GI50 (OVCAR-5 ovarian) was 5.07 µM and the TGI (OVCAR-5 ovarian) was > 100 µM. For the same compound, the GI50 (HCC-2998 colon) was 1.85 µM, the TGI (HCC-2998 colon) was > 100 µM and the GI50 (SNB-75 CNS) was 3.33 µM. For the same compound, the TGI (SNB-75 CNS) was > 100 µM, the GI50 (IGROV1 ovarian) was 0.257 µM and the TGI (IGROV1 ovarian) was 0.706 µM. The GI50 (SW-620 colon) was 0.488 µM, the TGI (SW-620 colon) was > 100 µM and the GI50 (UO-31 renal) was 0.435 µM. For the same compound, the TGI (UO-31 renal) was 3.21 µM, the GI50 (CAKI-1 renal) was 1.44 µM and the TGI (CAKI-1 renal) was 4.89 µM. The GI50 (HL-60(TB) leukemia) was 0.446 µM, the TGI (HL-60(TB) leukemia) was 5.68 µM and the GI50 (COLO 205 colon) was 3.45 µM. The TGI (COLO 205 colon) was 32.5 µM, the GI50 (RPMI-8226 leukemia) was 0.843 µM and the TGI (RPMI-8226 leukemia) was > 100 µM. For the same compound, the GI50 (HT29 colon) was 13.3 µM, the TGI (HT29 colon) was > 100 µM and the GI50 (T-47D breast) was 0.437 µM. The TGI (T-47D breast) was 56.7 µM, the GI50 (U251 CNS) was 0.808 µM and the TGI (U251 CNS) was > 100 µM. The GI50 (NCI-H23 lung) was 0.481 µM and the TGI (NCI-H23 lung) was > 100 µM.
